According to ChEMBL document CHEMBL1201862, “PubChem BioAssay data set” (2004):
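Briefly, cells in 96-well plates were exposed to five compound concentrations for 48 h, and endpoints were estimated by linear interpolation. At the GI50, growth is halved.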 Active and inactive are the calls of the source. Cut-off read from the data, not from the text of the source: active = GI50 up to about 1.1 µM and inactive = higher.

What was measured:
Test in all cases: NCI-60 cell line screen, 48 h
[1] = test system: HCT-15
[2] = test system: A498
[3] = test system: Hs-578T
[4] = test system: HL-60
[5] = test system: SK-OV-3
[6] = test system: UACC-257
[7] = test system: SW-620
[8] = test system: ACHN
[9] = test system: NCI-H460
[10] = test system: SN12C
[11] = test system: SF-268
[12] = test system: SF-295
[13] = test system: UO-31
[14] = test system: COLO 205
[15] = test system: KM12
[16] = test system: OVCAR-8
[17] = test system: K562
[18] = test system: UACC-62
[19] = test system: MDA-MB-231
[20] = test system: U-251

## Fc1ccc(-c2sc(-c3cccs3)cc2Cc2cccs2)cc1
[1]
  GI50: > 100 µM
[2]
  GI50: > 100 µM (inactive)
[3]
  GI50: > 100 µM (inactive)
[4]
  GI50: > 100 µM (inactive)
[5]
  GI50: > 100 µM (inactive)
[6]
  GI50: > 100 µM (inactive)
[7]
  GI50: > 100 µM (inactive)
[8]
  GI50: > 100 µM (inactive)
[9]
  GI50: > 100 µM (inactive)
[10]
  GI50: > 100 µM (inactive)
[11]
  GI50: > 100 µM (inactive)
[12]
  GI50: > 100 µM (inactive)
[13]
  GI50: > 100 µM (inactive)
[14]
  GI50: > 100 µM (inactive)
[15]
  GI50: > 100 µM (inactive)
[16]
  GI50: > 100 µM (inactive)
[17]
  GI50: > 100 µM (inactive)
[18]
  GI50: > 100 µM (inactive)
[19]
  GI50: > 100 µM (inactive)
[20]
  GI50: > 100 µM (inactive)

## CCOC(=O)c1cccc(/N=N/c2nc[nH]c2/C=C/C(=O)OC)c1
[1]
  GI50: 5.13 µM
[2]
  GI50: 22.6 µM (inactive)
[3]
  GI50: 53.5 µM (inactive)
[4]
  GI50: 3.37 µM (inactive)
[5]
  GI50: 44.8 µM (inactive)
[6]
  GI50: 12.9 µM (inactive)
[7]
  GI50: 6.47 µM (inactive)
[8]
  GI50: 16.5 µM (inactive)
[9]
  GI50: 16.5 µM (inactive)
[10]
  GI50: 5.97 µM (inactive)
[11]
  GI50: 8.79 µM (inactive)
[12]
  GI50: 12.9 µM (inactive)
[13]
  GI50: 8.15 µM (inactive)
[14]
  GI50: 4.39 µM (inactive)
[15]
  GI50: 15.8 µM (inactive)
[16]
  GI50: 16.5 µM (inactive)
[17]
  GI50: 4.06 µM (inactive)
[18]
  GI50: 23.6 µM (inactive)
[19]
  GI50: 4.39 µM (inactive)
[20]
  GI50: 6.73 µM (inactive)

## CC(OC(C)(C)C)[C@H](NC(=O)OCc1ccccc1)C(=O)NC(OCc1ccccc1)[C@H]1COC(C)(C)O1 (stereo not given in full)
[1]
  GI50: > 10 µM
[2]
  GI50: > 10 µM (inactive)
[3]
  GI50: > 10 µM (inactive)
[4]
  GI50: > 10 µM (inactive)
[5]
  GI50: > 10 µM (inactive)
[6]
  GI50: > 10 µM (inactive)
[7]
  GI50: > 10 µM (inactive)
[8]
  GI50: > 10 µM (inactive)
[9]
  GI50: > 10 µM (inactive)
[10]
  GI50: > 10 µM (inactive)
[11]
  GI50: 40.3 µM (inactive)
[12]
  GI50: > 10 µM (inactive)
[13]
  GI50: > 10 µM (inactive)
[14]
  GI50: > 10 µM (inactive)
[15]
  GI50: > 10 µM (inactive)
[16]
  GI50: > 10 µM (inactive)
[17]
  GI50: > 10 µM (inactive)
[18]
  GI50: > 10 µM (inactive)
[19]
  GI50: > 10 µM (inactive)
[20]
  GI50: > 10 µM (inactive)

## COC(=O)/C=C(/OC)[C@H](C)[C@H](/C=C/c1csc(-c2csc(C(C)C)n2)n1)OC
[1]
  GI50: 0.0975 µM
[2]
  GI50: 5.97 µM (inactive)
[3]
  GI50: > 57.8 µM (inactive)
[4]
  GI50: 2.51 µM (inactive)
[5]
  GI50: > 62.1 µM (inactive)
[6]
  GI50: 0.455 µM (active)
[7]
  GI50: 0.741 µM (active)
[8]
  GI50: 0.124 µM (active)
[9]
  GI50: 0.0521 µM (active)
[10]
  GI50: 10.3 µM (inactive)
[11]
  GI50: 0.647 µM (active)
[12]
  GI50: 0.0681 µM (active)
[13]
  GI50: 0.703 µM (active)
[14]
  GI50: 3.38 µM (inactive)
[15]
  GI50: 1.52 µM (inactive)
[16]
  GI50: 0.785 µM (active)
[17]
  GI50: 0.52 µM (active)
[18]
  GI50: 0.33 µM (active)
[19]
  GI50: 4.69 µM (inactive)
[20]
  GI50: 0.149 µM (active)

## Cc1cn(C2CCC(CO)(CF)O2)c(=O)[nH]c1=O (stereo not given)
[1]
  GI50: > 100 µM
[2]
  GI50: > 100 µM (inactive)
[3]
  GI50: > 100 µM (inactive)
[4]
  GI50: > 100 µM (inactive)
[5]
  GI50: > 100 µM (inactive)
[6]
  GI50: > 100 µM (inactive)
[7]
  GI50: > 100 µM (inactive)
[8]
  GI50: > 100 µM (inactive)
[9]
  GI50: > 100 µM (inactive)
[10]
  GI50: > 100 µM (inactive)
[11]
  GI50: > 100 µM (inactive)
[12]
  GI50: > 100 µM (inactive)
[13]
  GI50: > 100 µM (inactive)
[14]
  GI50: > 100 µM (inactive)
[15]
  GI50: > 100 µM (inactive)
[16]
  GI50: > 100 µM (inactive)
[17]
  GI50: > 100 µM (inactive)
[18]
  GI50: > 100 µM (inactive)
[19]
  GI50: > 100 µM (inactive)
[20]
  GI50: > 100 µM (inactive)

## C(=C(c1ccc(OC2CCCCO2)cc1)c1ccc(OC2CCCCO2)cc1)c1ccccc1 (stereo not given)
[1]
  GI50: 0.8 µM
[2]
  GI50: 1.31 µM (inactive)
[3]
  GI50: 1.13 µM (inactive)
[4]
  GI50: 0.233 µM (active)
[5]
  GI50: 1.29 µM (inactive)
[6]
  GI50: 0.378 µM (active)
[7]
  GI50: 0.54 µM (active)
[8]
  GI50: 1.06 µM (active)
[9]
  GI50: 0.395 µM (active)
[10]
  GI50: 1.02 µM (active)
[11]
  GI50: 1.09 µM (active)
[12]
  GI50: 1.18 µM (inactive)
[13]
  GI50: 0.895 µM (active)
[14]
  GI50: 0.583 µM (active)
[15]
  GI50: 0.156 µM (active)
[16]
  GI50: 0.598 µM (active)
[17]
  GI50: 0.35 µM (active)
[18]
  GI50: 0.547 µM (active)
[19]
  GI50: 0.361 µM (active)
[20]
  GI50: 0.792 µM (active)

## COc1ccc2c(c1)CCN1CCc3ccccc3CC21 (stereo not given)
[1]
  GI50: 48.2 µM
[2]
  GI50: 30 µM (inactive)
[3]
  GI50: 72.6 µM (inactive)
[4]
  GI50: 16.8 µM (inactive)
[5]
  GI50: 64.6 µM (inactive)
[6]
  GI50: 29.7 µM (inactive)
[7]
  GI50: 45.3 µM (inactive)
[8]
  GI50: 45 µM (inactive)
[9]
  GI50: 30.8 µM (inactive)
[10]
  GI50: 73.5 µM (inactive)
[11]
  GI50: 24.8 µM (inactive)
[12]
  GI50: 19.2 µM (inactive)
[13]
  GI50: 11 µM (inactive)
[14]
  GI50: 19.4 µM (inactive)
[15]
  GI50: 37.2 µM (inactive)
[16]
  GI50: 63.5 µM (inactive)
[17]
  GI50: 29 µM (inactive)
[18]
  GI50: 32.3 µM (inactive)
[19]
  GI50: 52.2 µM (inactive)
[20]
  GI50: 34.7 µM (inactive)

## CC(=O)c1cccc(NC(=O)C(=O)C(c2cnc3ccc([N+](=O)[O-])cc3n2)[N+](=O)[O-])c1 (stereo not given)
[1]
  GI50: > 100 µM
[2]
  GI50: > 100 µM (inactive)
[3]
  GI50: > 100 µM (inactive)
[4]
  GI50: 37.9 µM (inactive)
[5]
  GI50: > 100 µM (inactive)
[6]
  GI50: > 100 µM (inactive)
[7]
  GI50: 52.2 µM (inactive)
[8]
  GI50: > 100 µM (inactive)
[9]
  GI50: > 100 µM (inactive)
[10]
  GI50: > 100 µM (inactive)
[11]
  GI50: > 100 µM (inactive)
[12]
  GI50: 66.7 µM (inactive)
[13]
  GI50: 38.5 µM (inactive)
[14]
  GI50: 41 µM (inactive)
[15]
  GI50: 54.1 µM (inactive)
[16]
  GI50: > 100 µM (inactive)
[17]
  GI50: > 100 µM (inactive)
[18]
  GI50: > 100 µM (inactive)
[19]
  GI50: > 100 µM (inactive)
[20]
  GI50: > 100 µM (inactive)
